Assay results from patent US20260285850A1, “SUBSTITUTED OXAZOLIDINONES AND IMIDAZOLINONES AS HERBICIDES” (FMC CORPORATION, priority 2023, published 2026).

Columns and labels:
Format in all cases: in vivo
[1] = test system: barnyardgrass (Echinochloa crus-galli); test: Test A preemergence soil spray, visual injury rating 0-100; details: 10 days
In short: (§1)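 Directed preemergence spray onto seeded soil or postemergence spray onto 2-10 cm plants (loam plus sand); compound carried in surfactant-containing non-phytotoxic solvent. Injury rated by eye after 10 d greenhouse growth; 0 = no effect, 100 = complete control.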

[2] = test system: blackgrass (Alopecurus myosuroides); test: as above; details: 10 days
In short: as §1

corn (Zea mays) [3] = test: as above; details: 10 days
In short: as §1

[4] = test system: green foxtail (Setaria viridis); test: as above; details: 10 days
In short: as §1

kochia (Bassia scoparia) [5] = test: as above; details: 10 days
In short: as §1

[6] = test system: oat, wild (wild oat, Avena fatua); test: as above; details: 10 days
In short: as §1

[7] = test system: palmer (palmer amaranth, palmer pigweed, Amaranthus palmeri); test: as above; details: 10 days
In short: as §1

[8] = test system: ragweed (common ragweed, Ambrosia artemisiifolia); test: as above; details: 10 days
In short: as §1

[9] = test system: ryegrass, Italian (italian ryegrass, Lolium multiflorum); test: as above; details: 10 days
In short: as §1

soybean (Glycine max) [10] = test: as above; details: 10 days
In short: as §1

[11] = test system: wheat (Triticum aestivum); test: as above; details: 10 days
In short: as §1

[12] = test system: barnyardgrass (Echinochloa crus-galli); test: Test A postemergence application, visual injury rating 0-100
In short: as §1

[13] = test system: blackgrass (Alopecurus myosuroides); test: as above
In short: as §1

corn (Zea mays) [14] = test: as above
In short: as §1

[15] = test system: galium (catchweed bedstraw, Galium aparine); test: as above
In short: as §1

[16] = test system: green foxtail (Setaria viridis); test: as above
In short: as §1

[17] = test system: horseweed (Erigeron canadensis); test: as above
In short: as §1

kochia (Bassia scoparia) [18] = test: as above
In short: as §1

[19] = test system: oat, wild (wild oat, Avena fatua); test: as above
In short: as §1

[20] = test system: palmer (palmer amaranth, palmer pigweed, Amaranthus palmeri); test: as above
In short: as §1

[21] = test system: ragweed (common ragweed, Ambrosia artemisiifolia); test: as above
In short: as §1

[22] = test system: ryegrass, Italian (italian ryegrass, Lolium multiflorum); test: as above
In short: as §1

soybean (Glycine max) [23] = test: as above
In short: as §1

[24] = test system: wheat (Triticum aestivum); test: as above
In short: as §1

[25] = test system: barnyardgrass (Echinochloa crusgalli); test: Test B flooded paddy test, visual plant response rating 0-100; details: 250 g ai/ha, Flood, applied to paddy water, evaluated after 13 days
In short: (§2)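 Visual scores versus untreated controls were recorded 13 days after treatment of greenhouse-held plants. At the 2-leaf stage, pots were flooded 3 cm above the soil surface and compounds added straight to the water.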

[26] = test system: ducksalad (Heteranthera limosa); test: as above; details: 250 g ai/ha, Flood, applied to paddy water, evaluated after 13 days
In short: as §2

rice (Oryza sativa) = test: as above; details: 250 g ai/ha, Flood, applied to paddy water, evaluated after 13 days
In short: as §2

[27] = test system: sedge, umbrella (small-flower umbrella sedge, Cyperus difformis); test: as above; details: 250 g ai/ha, Flood, applied to paddy water, evaluated after 13 days
In short: as §2

[28] = 62 g ai/ha, 0 = no effect, 100 = complete control
[29] = 62 g ai/ha, postemergence, 10 days, 0 = no effect, 100 = complete control
[30] = Postemergence, 16 g ai/ha, greenhouse 10 days, 0 no effect, 100 complete control

With `COC(=O)C1CC(NC(=O)C2(C)CN(c3cc(F)cc(F)c3)C(=O)O2)C1` (stereo not shown) [Compound 117] the “Barnyardgrass plant response rating” value ([1]; 16 g ai/ha, 0 to 100 scale) was 0, the “Barnyardgrass plant response rating (0-100)” value [1, 28] was 10 and the “Blackgrass plant response rating” value ([2]; 16 g ai/ha, 0 to 100 scale) was 30. The “Blackgrass plant response rating (0-100)” value [2, 28] was 60, the “Corn plant response rating” value (corn (Zea mays) [3]; 16 g ai/ha, 0 to 100 scale) was 0 and the “Corn plant response rating (0-100)” value (corn (Zea mays) [3]; [28]) was 0. For the same compound, the “Foxtail, Green plant response rating” value ([4]; 16 g ai/ha, 0 to 100 scale) was 0, the “Foxtail, Green plant response rating (0-100)” value [4, 28] was 80 and the “Kochia plant response rating” value (kochia (Bassia scoparia) [5]; 16 g ai/ha, 0 to 100 scale) was 0. The “Kochia plant response rating (0-100)” value (kochia (Bassia scoparia) [5]; [28]) was 0, the “Oat, Wild plant response rating” value ([6]; 16 g ai/ha, 0 to 100 scale) was 40 and the “Oat, Wild plant response rating (0-100)” value [6, 28] was 90. For the same compound, the “Pigweed, Palmer plant response rating” value ([7]; 16 g ai/ha, 0 to 100 scale) was 0, the “Pigweed, Palmer plant response rating (0-100)” value [7, 28] was 10 and the “Ragweed plant response rating” value ([8]; 16 g ai/ha, 0 to 100 scale) was 0. For the same compound, the “Ragweed plant response rating (0-100)” value [8, 28] was 0, the “Ryegrass, Italian plant response rating” value ([9]; 16 g ai/ha, 0 to 100 scale) was 0 and the “Ryegrass, Italian plant response rating (0-100)” value [9, 28] was 70. The “Soybean plant response rating” value (soybean (Glycine max) [10]; 16 g ai/ha, 0 to 100 scale) was 0, the “Soybean plant response rating (0-100)” value (soybean (Glycine max) [10]; [28]) was 0 and the “Wheat plant response rating” value ([11]; 16 g ai/ha, 0 to 100 scale) was 0. For the same compound, the “Wheat plant response rating (0-100)” value [11, 28] was 20, the “Barnyardgrass plant response rating (0-100)” value [12, 29] was 70 and the “Barnyardgrass plant response rating (0 to 100 scale)” value [12, 30] was 0. For the same compound, the “Blackgrass plant response rating (0-100)” value [13, 29] was 90, the “Blackgrass plant response rating (0 to 100 scale)” value [13, 30] was 70 and the “Corn plant response rating (0-100)” value (corn (Zea mays) [14]; [29]) was 100. The “Corn plant response rating (0 to 100 scale)” value (corn (Zea mays) [14]; [30]) was 0, the “Galium plant response rating (0-100)” value [15, 29] was 60 and the “Galium plant response rating (0 to 100 scale)” value [15, 30] was 50. For the same compound, the “Foxtail, Green plant response rating (0-100)” value [16, 29] was 90, the “Foxtail, Green plant response rating (0 to 100 scale)” value [16, 30] was 30 and the “Horseweed plant response rating (0-100)” value [17, 29] was 0. For the same compound, the “Horseweed plant response rating (0 to 100 scale)” value [17, 30] was 0, the “Kochia plant response rating (0-100)” value (kochia (Bassia scoparia) [18]; [29]) was 0 and the “Kochia plant response rating (0 to 100 scale)” value (kochia (Bassia scoparia) [18]; [30]) was 0. The “Oat, Wild plant response rating (0-100)” value [19, 29] was 80, the “Oat, Wild plant response rating (0 to 100 scale)” value [19, 30] was 10 and the “Pigweed, Palmer plant response rating (0-100)” value [20, 29] was 10. For the same compound, the “Pigweed, Palmer plant response rating (0 to 100 scale)” value [20, 30] was 0, the “Ragweed plant response rating (0-100)” value [21, 29] was 40 and the “Ragweed plant response rating (0 to 100 scale)” value [21, 30] was 0. For the same compound, the “Ryegrass, Italian plant response rating (0-100)” value [22, 29] was 80, the “Ryegrass, Italian plant response rating (0 to 100 scale)” value [22, 30] was 60 and the “Soybean plant response rating (0-100)” value (soybean (Glycine max) [23]; [29]) was 60. For the same compound, the “Soybean plant response rating (0 to 100 scale)” value (soybean (Glycine max) [23]; [30]) was 40, the “Wheat plant response rating (0-100)” value [24, 29] was 90 and the “Wheat plant response rating (0 to 100 scale)” value [24, 30] was 50. The “Plant response rating, Barnyardgrass (0 to 100 scale, 0 is no effect and 100 is complete control)” value [25] was 0, the “Plant response rating, Ducksalad (0 to 100 scale, 0 is no effect and 100 is complete control)” value [26] was 0 and the “Plant response rating, Rice (0 to 100 scale, 0 is no effect and 100 is complete control)” value (rice (Oryza sativa)) was 0. For the same compound, the “Plant response rating, Sedge, Umbrella (0 to 100 scale, 0 is no effect and 100 is complete control)” value [27] was 0.
